Measurements: patent publication EP3502109A1, “TRIAZOLE-PHENYL-THIAZOLE HETEROCYCLES AS INNOVATIVE INHIBITORS OF TRYPANOTHIONE REDUCTASE AND THEIR USE AS LEISHMANICIDES” (Consejo Superior De Investigaciones Científicas, priority 2017, dated 2019)
Structures can show the parent of a compound that is named as a salt. Where two headings read alike, the source gives them in different places.

How the values were obtained:
recombinant Li-TryR = recombinant Li-TryR (Leishmania infantum, UniProt A4HSF7); experiment: Li-TryR oxidoreductase activity assay; format: biochemical
Chain of recombinant Li-TryR (A4HSF7 entry or part of it): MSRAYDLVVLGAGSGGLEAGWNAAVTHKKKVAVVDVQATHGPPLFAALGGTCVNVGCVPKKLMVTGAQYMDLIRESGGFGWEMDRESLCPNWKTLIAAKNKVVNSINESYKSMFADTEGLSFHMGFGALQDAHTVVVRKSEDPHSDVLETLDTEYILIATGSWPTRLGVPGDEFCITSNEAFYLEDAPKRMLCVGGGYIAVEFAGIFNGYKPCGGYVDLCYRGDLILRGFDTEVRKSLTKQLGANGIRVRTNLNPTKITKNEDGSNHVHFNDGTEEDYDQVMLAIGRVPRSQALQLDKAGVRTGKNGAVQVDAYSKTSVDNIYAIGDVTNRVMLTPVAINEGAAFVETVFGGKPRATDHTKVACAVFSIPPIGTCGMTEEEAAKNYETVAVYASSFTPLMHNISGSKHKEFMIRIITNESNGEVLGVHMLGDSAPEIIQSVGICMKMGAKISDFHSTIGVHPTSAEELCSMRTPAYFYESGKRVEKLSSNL
Method: Oxidoreductase activity was determined according to the method described by Hamilton et al. (Biochem. J., 2003, 369, 529-537). Briefly, reactions were carried out at 26 °C (250 µL) of HEPES pH 8.0 (40 mM) buffer containing EDTA (1 mM), NADPH (150 µM), NADP+ (30 µM), DTNB (25 µM), T[S]2 (1 µM), glicerol (0.02%), DMSO (1.5%) and recombinant Li-TryR (7 nM). […] Enzyme activity was monitored by the increase in absorbance at 412 nm for 1 h at 26 °C in a VERSAmax microplate reader (Molecular Devices, California, USA). All the assays were conducted in triplicate in at least three independent experiments. Data were analyzed using a non-linear regression model with the Grafit6 software (Erithacus, Horley, Surrey, UK).

Li-TryR dimeric form = Li-TryR dimeric form (Leishmania infantum, UniProt A4HSF7); experiment: Dimer quantitation assay (ELISA), Li-TryR monomer displacement; format: binding
Chain of Li-TryR dimeric form (A4HSF7 entry or part of it): as above
Method: The stability of the Li-TryR dimeric form in the presence of the compounds was evaluated using an Enzyme-Linked ImmunoSorbent Assay (ELISA). Briefly a dual (HIS/FLAG) tagged Li-TryR (400 nM) was incubated in a dimerization buffer (200 µL 300 mM NaCl, 50 mM Tris pH 8.0) for 16 h at 37 °C with agitation and in a humid atmosphere in the presence of different peptide concentration (10 to 90 µM) in 1.5ml tubes. Next, the tubes were centrifuged at 30000 rcf and supernatants were disposed in anti-flag coated 96 well plates and incubated 30 min, at 37°C with gentle shaking. Then the plates were washed ten times with TTBS (Tween 0.1%, 2 mM Tris, 138 mM NaCl 138 pH 7.6) and incubated with diluted monoclonal α-HIS HRP conjugated antibody (200 µL, Abcam, Cambridge, UK) in BSA (5%) in TTBS for 1 h at room temperature. The plates were washed once again as previously described and 1,2-phenylenediamine dihydrochloride (OPD) substrate (100 µL, Dako, Glostrup, Denmark) prepared according to manufacturer's instructions was added. The enzymatic reaction was stopped after 10 min with H2SO4 (100 µL, 0.5 M) and the absorbances were measured at 490 nm in a VERSAmax microplate reader (Molecular Devices, California, USA). All the assays were conducted in triplicate in at least three independent experiments. Data were analyzed using a non-linear regression model with the Grafit6 software (Erithacus, Horley, Surrey, UK). Table 1. IC50 ± SEM values for target compounds of formula I-A and I-B in the oxidoreductase activity assays and in the Li-TryR monomer displacement

[1] = system: L. infantum axenic amastigotes; experiment: Leishmanicidal activity on axenic amastigotes (PI exclusion, flow cytometry); format: cell-based; settings: Leishmania infantum, 24 h
Method: L. infantum axenic amastigotes were grown in M199 (Invitrogen, Leiden, The Netherlands) medium supplemented with 10% heat inactivated FCS, 1 g/L β-alanine, 100 mg/L L-asparagine, 200 mg/L sacarose, 50 mg/L sodium pyruvate, 320 mg/L malic acid, 40 mg/L fumaric acid, 70 mg/L succinic acid, 200 mg/L α-ketoglutaric acid, 300 mg/L citric acid, 1.1 g/L sodium bicarbonate, 5 g/L MES, 0.4 mg/L hemin, 10 mg/L gentamicine pH 5.4 at 37 °C. THP-1 cells were grown in RPMI-1640 medium (Gibco, Leiden, The Netherlands) supplemented with 10% heat inactivated FCS, antibiotics, 1 mM HEPES, 2 mM glutamine and 1 mM sodium pyruvate, pH 7.2 at 37 °C and 5% CO2.
(§1) Drug treatment of amastigotes was performed during the logarithmic growth phase at a concentration of 1×10^6 parasites/mL at 37 °C for 24 h. Drug treatment of promastigotes was performed during the logarithmic growth phase at a concentration of 2×10^6 parasites/mL at 26 °C for 24 h. The percentage of living cells was evaluated by flow cytometry by the propidium iodide (PI) exclusion method.^17 Drug concentrations ranged from 0.2 µM to 25 µM.

[2] = system: macrophage-differentiated THP-1 monocytes; experiment: Cytotoxicity assay, macrophage-differentiated THP-1 (crystal violet); format: cell-based; settings: Homo sapiens, THP-1, 24 h; read-out: EC50 (µM) THP-1 dif
Method: (§2) Human THP-1 monocytic cells were seeded at 1.2 x 10^5 cells/ml in 24-multidish plates (Nunc, Roskilde, Denmark) and differentiated to macrophages for 24 h in 1 ml of RPMI 1640 medium containing 10 ng/ml of phorbol 12-myristate 13-acetate (PMA) (Sigma-Aldrich, St. Louis, MO). Human HepG2 cells were seeded at 8 x 10^5 cells/ml in 24-multidish plates (Nunc, Roskilde, Denmark). After 24 h of drug treatment, both cell lines were washed with PBS and stained with violet crystal solution (0.2% in 2% ethanol) in for 10 min. at room temperature. After dye removal, cells were washed twice with water. Once dried, the wells were treated with 1% SDS for 30 min and the absorbance at 570nm was monitored in a plate reader. Table 2. EC50± SEM values for the compounds of formula I-A and I-B on L. infantum promastigotes, extracellular and intracellular amastigotes and cytotoxic activity in macrophage-differentiated THP-1 monocytes and HepG2 cell lines

[3] = system: L. infantum promastigotes; experiment: Leishmanicidal activity on promastigotes (PI exclusion, flow cytometry); format: cell-based; settings: Leishmania infantum, 24 h
Method: L. infantum promastigotes (MCAN/ES/ 89/IPZ229/1/89) were grown in RPMI-1640 medium (Sigma-Aldrich, St. Louis, MO, USA) supplemented with 10% heat-inactivated fetal calf serum (FCS), antibiotics, and 25 mm HEPES (pH 7.2) at 26 °C.
as §1

HepG2 cells = experiment: Cytotoxicity assay, HepG2 (crystal violet); format: cell-based; settings: Homo sapiens, HepG2, 24 h
Method: as §2

Compound | IC50 (recombinant Li-TryR; read-out: IC50 act) | IC50 (Li-TryR dimeric form; read-out: IC50 dim) | further results
C[n+]1nn(-c2ccc(-c3nc(CCc4ccccc4)cs3)c(OCCC3CCNCC3)c2)cc1CCCCN [Compound 10k, Mono (4-(2-(5-(4-(4-ammoniobutyl)-3-methyl-1H-1,2,3-triazol-3-ium-1-yl)-2-(4-phenethylthiazol-2-yl)phenoxy)ethyl)piperidin-1-ium) mono(2,2,2-trifluoroacetate) mono(trifluoromethanesulfonate)] | 3.35 ± 0.3 µM | > 75 µM | –
CC[n+]1nn(-c2ccc(-c3nc(CCc4ccc(-c5ccccc5)cc4)cs3)c(OCCN3CCNC3=O)c2)cc1CCCCN [Compound 10f, 1-(4-(4-(2-([1,1'-Biphenyl]-4-yl)ethyl)thiazol-2-yl)-3-(2-(2-oxoimidazolidin-1-yl)ethoxy)phenyl)-4-(4-ammoniobutyl)-3-ethyl-1H-1,2,3-triazol-3-ium 2,2,2-trifluoroacetate trifluoromethanesulfonate] | – | – | EC50 [1]: 15.5 ± 0.7 µM; IC50 (recombinant Li-TryR): 3.88 ± 0.55 µM; EC50 [2]: 19.9 ± 1.1 µM; EC50 [3]: 6.03 ± 0.49 µM; IC50 (Li-TryR dimeric form): 87.06 ± 0.1 µM; EC50 (HepG2 cells): 69.9 ± 2.97 µM
C[n+]1nn(-c2ccc(-c3nc(CCc4ccccc4)cs3)c(OCCN3CCNC3=O)c2)cc1CCCCN [Compound 10b, 4-(4-Ammoniobutyl)-3-methyl-1-(3-(2-(2-oxoimidazolidin-1-yl)ethoxy)-4-(4-phenethylthiazol-2-yl)phenyl)-1H-1,2,3-triazol-3-ium 2,2,2-trifluoroacetate trifluoromethanesulfonate] | 12.9 ± 0.98 µM | > 75 µM | –
C[n+]1nn(-c2ccc(-c3nc(CCc4ccc5c(c4)CCO5)cs3)c(OCCN3CCNC3=O)c2)cc1CCCCN [Compound 10d, 4-(4-Ammoniobutyl)-1-(4-(4-(2-(2,3-dihydrobenzofuran-5-yl)ethyl)thiazol-2-yl)-3-(2-(2-oxoimidazolidin-1-yl)ethoxy)phenyl)-3-methyl-1H-1,2,3-triazol-3-ium 2,2,2-trifluoroacetate trifluoromethanesulfonate] | – | – | EC50 [1]: ≥ 75 µM; IC50 (recombinant Li-TryR): 5.42 ± 0.23 µM; EC50 [2]: ≥ 75 µM; EC50 [3]: 47 ± 2.08 µM; IC50 (Li-TryR dimeric form): > 75 µM; EC50 (HepG2 cells): ≥ 75 µM
C[n+]1nn(-c2ccc(-c3nc(-c4ccccc4)cs3)c(OCCN3CCNC3=O)c2)cc1CCCCN [Compound 10a, 4-(4-Ammoniobutyl)-3-methyl-1-(3-(2-(2-oxoimidazolidin-1-yl)ethoxy)-4-(4-phenylthiazol-2-yl)phenyl)-1H-1,2,3-triazol-3-ium 2,2,2-trifluoroacetate trifluoromethanesulfonate] | 22.8 ± 0.98 µM | > 75 µM | –
NCCCCc1cn(-c2ccc(-c3nc(-c4ccccc4)cs3)c(OCCN3CCNC3=O)c2)nn1 [Compound 8c, 1-(2-(5-(4-(4-aminobutyl)-1H-1,2,3-triazol-1-yl)-2-(4-phenylthiazol-2-yl)phenoxy)ethyl)imidazolidin-2-one 2,2,2 trifluoroacetate] | 24 ± 1.69 µM | 29 ± 1.51 µM | –
NCCCc1cn(-c2ccc(-c3nc(CCc4ccc(-c5ccccc5)cc4)cs3)c(OCCN3CCNC3=O)c2)nn1 [Compound 8o, 1-(2-(2-(4-(2-([1,1'-Biphenyl]-4-yl)ethyl)thiazol-2-yl)-5-(4-(3-aminopropyl)-1H-1,2,3-triazol-1-yl)phenoxy)ethyl)imidazolidin-2-one 2,2,2 trifluoroacetate] | 21.8 ± 5.49 µM | 11.1 ± 0.44 µM | –
COc1cc(-n2cc(CCCCN)nn2)ccc1-c1nc(CCc2ccccc2)cs1 [Compound 8m, 4-(1-(3-Methoxy-4-(4-phenethylthiazol-2-yl)phenyl)-1H-1,2,3-triazol-4-yl)butan-1-amine 2,2,2 trifluoroacetate] | – | – | EC50 [1]: 7.1 ± 0.9 µM; IC50 (recombinant Li-TryR): 17.5 ± 2.91 µM; EC50 [3]: 9.56 ± 0.44 µM; IC50 (Li-TryR dimeric form): 89.2 ± 29.6 µM
C[n+]1nn(-c2ccc(-c3nc(CCc4ccc(-c5ccccc5)cc4)cs3)c(OCCN3CCNC3=O)c2)cc1CCCN [Compound 10j, 1-(4-(4-(2-([1,1'-Biphenyl]-4-yl)ethyl)thiazol-2-yl)-3-(2-(2-oxoimidazolidin-1-yl)ethoxy)phenyl)-4-(3-ammoniopropyl)-3-methyl-1H-1,2,3-triazol-3-ium 2,2,2-trifluoroacetate trifluoromethanesulfonate] | 6.99 ± 0.59 µM | 30.2 ± 3.47 µM | –
C[n+]1nn(-c2ccc(-c3nc(CCc4ccccc4)cs3)c(OCCN3CCNC3=O)c2)cc1CCCN [Compound 10i, 4-(3-Ammoniopropyl)-3-methyl-1-(3-(2-(2-oxoimidazolidin-1-yl)ethoxy)-4-(4-phenethylthiazol-2-yl)phenyl)-1H-1,2,3-triazol-3-ium 2,2,2-trifluoroacetate trifluoromethanesulfonate] | 21.5 ± 2.87 µM | > 75 µM | –
C[n+]1nn(-c2ccc(-c3nc(-c4ccccc4)c(-c4ccccc4)s3)c(OCCN3CCNC3=O)c2)cc1CCCCN [Compound 10l, 4-(4-Ammoniobutyl)-1-(4-(4,5-diphenylthiazol-2-yl)-3-(2-(2-oxoimidazolidin-1-yl)ethoxy)phenyl)-3-methyl-1H-1,2,3-triazol-3-ium 2,2,2-trifluoroacetate trifluoromethanesulfonate] | 9.31 ± 0.92 µM | > 75 µM | –
NCCCc1cn(-c2ccc(-c3nc(CCc4ccccc4)cs3)c(OCCN3CCNC3=O)c2)nn1 [Compound 8n, 1-(2-(5-(4-(3-aminopropyl)-1H-1,2,3-triazol-1-yl)-2-(4-phenethylthiazol-2-yl)phenoxy)ethyl)imidazolidin-2-one 2,2,2 trifluoroacetate] | 41.2 ± 8.48 µM | > 75 µM | –
CC(C)Oc1csc(-c2ccc(-n3cc(CCCCN)nn3)cc2OCCN2CCNC2=O)n1 [Compound 8a, 1-(2-(5-(4-(4-Aminobutyl)-1H-1,2,3-triazol-1-yl)-2-(4-isopropoxythiazol-2-yl)phenoxy)ethyl)imidazolidin-2-one 2,2,2 trifluoroacetate] | 50.2 ± 2.37 µM | > 75 µM | –
NCCCCc1cn(-c2ccc(-c3nc(CCc4ccccc4)cs3)c(OCCC3CCNCC3)c2)nn1 [Compound 8l, 4-(1-(4-(4-phenethylthiazol-2-yl)-3-(2-(piperidin-4-yl)ethoxy)phenyl)-1H-1,2,3-triazol-4-yl)butan-1-amine 2,2,2 trifluoroacetate] | 5.78 ± 0.89 µM | > 75 µM | –
NCCCCc1cn(-c2ccc(-c3nc(-c4ccccc4)c(-c4ccccc4)s3)c(OCCN3CCNC3=O)c2)nn1 [Compound 8p, 1-(2-(5-(4-(4-Aminobutyl)-1H-1,2,3-triazol-1-yl)-2-(4,5-diphenylthiazol-2-yl)phenoxy)ethyl)imidazolidin-2-one 2,2,2 trifluoroacetate] | 6.07 ± 1.01 µM | 4.15 ± 1.92 µM | –
